Laboratory results published in ChEMBL document CHEMBL5050844 (2019).
Blank lines part the entries; values can stand above or below the molecule they belong to.

Legend:
[1] = Induction of anti-CD3/CD28 antibodies-stimulated human T cell activation at 4 uM assessed fold increase in IL-2 secretion measured by ELISA assay; format: functional, T cell line
[2] = Induction of anti-CD3/CD28 antibodies-stimulated human T cell activation at 1 uM assessed fold increase in CD25 expression measured by ELISA assay; format: functional, T cell line
[3] = Induction of anti-CD3/CD28 antibodies-stimulated human T cell activation at 0.3 uM assessed fold increase in CD25 expression measured by ELISA assay; format: functional, T cell line
[4] = Induction of anti-CD3 antibodies-stimulated human T cell activation at 1 uM assessed fold increase in CD25 expression measured by ELISA assay; format: functional, T cell line; further: reference of the scale not given here
[5] = Induction of anti-CD3/CD28 antibodies-stimulated human T cell activation at 1 uM assessed fold increase in IL-2 secretion measured by ELISA assay; format: functional, T cell line
[6] = molecular target: E3 ubiquitin-protein ligase CBL-B (Homo sapiens, UniProt Q13191); assay: Inhibition of N-terminal Avi-tagged human CBL-B (36 to 427 residues) incubated with 60 nM Src kinase for 1.5 hrs followed by incubation with fluorescently labeled UbcH5B-Ub for 1 hr and measured by TR-FRET assay; format: single protein
[7] = Induction of anti-CD3/CD28 antibodies-stimulated human T cell activation at 0.3 uM assessed fold increase in IL-2 secretion measured by ELISA assay; format: functional, T cell line
[8] = Induction of anti-CD3/CD28 antibodies-stimulated human T cell activation at 4 uM assessed fold increase in CD25 expression measured by ELISA assay; format: functional, T cell line
[9] = Induction of anti-CD3 antibodies-stimulated human T cell activation at 1 uM assessed fold increase in IL-2 secretion measured by ELISA assay; format: functional, T cell line; further: reference of the scale not given here
[10] = Induction of anti-CD3 antibodies-stimulated human T cell activation at 8 uM assessed fold increase in IL-2 secretion measured by ELISA assay; format: functional, T cell line; further: reference of the scale not given here
[11] = Induction of anti-CD3 antibodies-stimulated human T cell activation at 8 uM assessed fold increase in CD25 expression measured by ELISA assay; format: functional, T cell line; further: reference of the scale not given here

E3 ubiquitin-protein ligase CBL-B, sequence (Q13191 whole entry, the tested form may be a part): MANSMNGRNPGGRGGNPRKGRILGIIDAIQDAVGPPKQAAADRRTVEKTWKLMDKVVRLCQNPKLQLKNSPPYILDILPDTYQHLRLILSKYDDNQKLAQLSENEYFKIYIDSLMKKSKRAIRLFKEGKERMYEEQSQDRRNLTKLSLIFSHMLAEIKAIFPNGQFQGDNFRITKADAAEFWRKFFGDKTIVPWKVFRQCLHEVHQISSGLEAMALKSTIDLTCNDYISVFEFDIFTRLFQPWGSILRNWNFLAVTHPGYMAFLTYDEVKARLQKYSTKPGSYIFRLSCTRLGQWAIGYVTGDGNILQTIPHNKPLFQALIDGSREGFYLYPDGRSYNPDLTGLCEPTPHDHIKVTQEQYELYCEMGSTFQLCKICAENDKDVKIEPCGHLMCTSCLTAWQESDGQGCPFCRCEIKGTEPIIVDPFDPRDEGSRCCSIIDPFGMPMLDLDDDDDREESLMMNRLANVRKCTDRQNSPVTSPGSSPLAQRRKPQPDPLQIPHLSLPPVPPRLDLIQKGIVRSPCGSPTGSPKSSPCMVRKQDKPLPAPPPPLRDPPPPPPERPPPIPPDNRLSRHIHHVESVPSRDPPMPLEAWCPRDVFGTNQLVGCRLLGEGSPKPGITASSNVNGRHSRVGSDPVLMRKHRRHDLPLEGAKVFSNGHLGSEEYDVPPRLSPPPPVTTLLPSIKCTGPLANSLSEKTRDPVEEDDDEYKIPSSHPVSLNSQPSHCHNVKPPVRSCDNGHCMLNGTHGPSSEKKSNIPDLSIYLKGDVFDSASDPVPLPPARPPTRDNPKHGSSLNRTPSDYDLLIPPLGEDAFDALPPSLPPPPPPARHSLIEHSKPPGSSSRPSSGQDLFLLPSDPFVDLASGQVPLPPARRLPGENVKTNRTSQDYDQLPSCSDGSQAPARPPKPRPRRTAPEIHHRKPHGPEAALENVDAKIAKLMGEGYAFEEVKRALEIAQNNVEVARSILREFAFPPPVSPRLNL

SMILES: CN1CC2CCC(C1)N2c1cc2c(c(C(F)(F)F)c1)CN(c1cccc([C@@](C)(F)C(F)(F)c3nncn3C)c1)C2=O
fold change (FC) [1]: >=7.5
fold change (FC) [2]: 1.51
fold change (FC) [3]: 1.31
fold change (FC) [4]: >=1.001
fold change (FC) [5]: >=7.5
IC50 [6]: < 100 nM
fold change (FC) [7]: 5
fold change (FC) [8]: 1.51
fold change (FC) [9]: >=0.201
fold change (FC) [10]: >=0.201
fold change (FC) [11]: >=1.001

SMILES: Cn1cnnc1CC1(c2cccc(N3Cc4c(cccc4C(F)(F)F)C3=O)c2)COC1
fold change (FC) [1]: >=7.5
fold change (FC) [2]: 1.01
fold change (FC) [3]: 1.01
fold change (FC) [4]: 0.801
fold change (FC) [5]: 2.51
IC50 [6]: < 100 nM
fold change (FC) [7]: 1.01
fold change (FC) [8]: 1.31
fold change (FC) [9]: 0.051
fold change (FC) [10]: 0.101
fold change (FC) [11]: >=1.001

SMILES: Cc1cc(C(=O)Nc2cccc([C@H](C)Cc3nocc3C)c2)nc(C2CC2)n1
fold change (FC) [1]: 5
fold change (FC) [2]: 1.01
fold change (FC) [3]: 1.01
fold change (FC) [4]: 0.801
fold change (FC) [5]: 2.51
IC50 [6]: < 100 nM
fold change (FC) [7]: 1.01
fold change (FC) [8]: 1.01
fold change (FC) [9]: 0.051
fold change (FC) [10]: >=0.201
fold change (FC) [11]: >=1.001

SMILES: C[C@H](Cc1nncn1C)c1cccc(N2Cc3c(cc(C(C)(C)O)cc3C(F)(F)F)C2=O)c1
fold change (FC) [1]: 5
fold change (FC) [2]: 1.01
fold change (FC) [3]: >=1.76
fold change (FC) [4]: >=1.001
fold change (FC) [5]: 2.51
IC50 [6]: < 100 nM
fold change (FC) [7]: >=7.5
fold change (FC) [8]: 1.31
fold change (FC) [9]: 0.101
fold change (FC) [10]: 0.151
fold change (FC) [11]: 0.801

SMILES: C[C@H](Sc1nncn1C)c1cccc(NC(=O)c2ccnc(C3CC3)n2)c1
fold change (FC) [1]: 5
fold change (FC) [2]: 1.01
fold change (FC) [3]: 1.01
fold change (FC) [4]: 0.601
fold change (FC) [5]: 2.51
IC50 [6]: < 100 nM
fold change (FC) [7]: <=1
fold change (FC) [8]: 1.31
fold change (FC) [9]: <=0.05
fold change (FC) [10]: 0.051
fold change (FC) [11]: >=1.001

SMILES: Cn1cnnc1CC1(c2cccc(N3Cc4c(cc(CN5C[C@@H](F)[C@@H](F)C5)cc4C(F)(F)F)C3=O)c2)COC1
fold change (FC) [1]: >=7.5
fold change (FC) [2]: 1.31
fold change (FC) [3]: 1.31
fold change (FC) [4]: 0.801
fold change (FC) [5]: >=7.5
IC50 [6]: < 100 nM
fold change (FC) [7]: >=7.5
fold change (FC) [8]: 1.51
fold change (FC) [9]: 0.151
fold change (FC) [10]: >=0.201
fold change (FC) [11]: >=1.001

SMILES: C[C@H](c1cc2c(c(C(F)(F)F)c1)CN(c1cccc(C3(Cc4nncn4C)COC3)c1)C2=O)N1CCC(F)(F)C1
fold change (FC) [1]: >=7.5
fold change (FC) [2]: 1.31
fold change (FC) [3]: 1.01
fold change (FC) [4]: >=1.001
fold change (FC) [5]: >=7.5
IC50 [6]: < 100 nM
fold change (FC) [7]: 2.51
fold change (FC) [8]: 1.31
fold change (FC) [9]: 0.151
fold change (FC) [10]: >=0.201
fold change (FC) [11]: >=1.001

SMILES: C[C@@H](c1cc2c(c(C(F)(F)F)c1)CN(c1cccc([C@@](C)(F)C(F)(F)c3nncn3C)c1)C2=O)N1CC[C@H](F)C1
fold change (FC) [1]: >=7.5
fold change (FC) [2]: 1.51
fold change (FC) [3]: 1.31
fold change (FC) [4]: >=1.001
fold change (FC) [5]: >=7.5
IC50 [6]: < 100 nM
fold change (FC) [7]: >=7.5
fold change (FC) [8]: 1.51
fold change (FC) [9]: >=0.201
fold change (FC) [10]: >=0.201
fold change (FC) [11]: >=1.001

SMILES: C[C@H](Cc1nncn1C)c1cccc(NC(=O)c2nc3c(C(F)(F)F)cccc3[nH]2)c1
fold change (FC) [1]: >=7.5
fold change (FC) [2]: 1.51
fold change (FC) [3]: 1.01
fold change (FC) [4]: >=1.001
fold change (FC) [5]: 5
IC50 [6]: < 100 nM
fold change (FC) [7]: 2.51
fold change (FC) [8]: >=1.76
fold change (FC) [9]: >=0.201
fold change (FC) [10]: >=0.201
fold change (FC) [11]: >=1.001

Second part, led by results:

IC50 [6]: < 100 nM
SMILES: C[C@H](Cc1nncn1C)c1cc(OCC(F)F)nc(N2Cc3c(cccc3C(F)(F)F)C2=O)c1
fold change (FC) [1]: >=7.5
fold change (FC) [2]: 1.01
fold change (FC) [3]: 1.01
fold change (FC) [4]: 0.801
fold change (FC) [5]: 2.51
fold change (FC) [7]: 2.51
fold change (FC) [8]: 1.31
fold change (FC) [9]: 0.151
fold change (FC) [10]: >=0.201
fold change (FC) [11]: >=1.001

IC50 [6]: < 100 nM
SMILES: Cn1cnnc1CC(C)(C)c1cccc(NC(=O)c2cc(C(=O)N3CC[C@H](O)C3)cc(C(F)(F)F)n2)c1
fold change (FC) [1]: 5
fold change (FC) [2]: 1.01
fold change (FC) [3]: 1.01
fold change (FC) [4]: 0.801
fold change (FC) [5]: 2.51
fold change (FC) [7]: 1.01
fold change (FC) [8]: 1.01
fold change (FC) [9]: 0.101
fold change (FC) [10]: >=0.201
fold change (FC) [11]: >=1.001

IC50 [6]: < 100 nM
SMILES: CC(c1cc2c(c(C(F)(F)F)c1)CN(c1cccc([C@H]3C[C@H]3c3nncn3C)c1)C2=O)N1CC[C@H](F)C1 (stereo not given in full)
fold change (FC) [1]: >=7.5
fold change (FC) [2]: 1.51
fold change (FC) [3]: 1.31
fold change (FC) [4]: >=1.001
fold change (FC) [5]: >=7.5
fold change (FC) [7]: 2.51
fold change (FC) [8]: 1.51
fold change (FC) [9]: >=0.201
fold change (FC) [10]: >=0.201
fold change (FC) [11]: >=1.001

IC50 [6]: < 100 nM
SMILES: Cc1cc(C(=O)Nc2cccc(C3(Cc4nncn4C)COC3)c2)nc(C2CC2)c1
fold change (FC) [1]: >=7.5
fold change (FC) [2]: 1.31
fold change (FC) [3]: 1.31
fold change (FC) [4]: >=1.001
fold change (FC) [5]: >=7.5
fold change (FC) [7]: 5
fold change (FC) [8]: 1.51
fold change (FC) [9]: >=0.201
fold change (FC) [10]: >=0.201
fold change (FC) [11]: >=1.001

IC50 [6]: < 100 nM
SMILES: C[C@H](Sc1nncn1C)c1cccc(NC(=O)c2cccc(C3CC3)n2)c1
fold change (FC) [1]: 2.51
fold change (FC) [2]: 1.51
fold change (FC) [3]: 1.31
fold change (FC) [4]: <=0.6
fold change (FC) [5]: 2.51
fold change (FC) [7]: 1.01
fold change (FC) [8]: 1.51
fold change (FC) [9]: 0.051
fold change (FC) [10]: 0.151
fold change (FC) [11]: 0.801

IC50 [6]: < 100 nM
SMILES: Cn1cnnc1CC1(c2cccc(N3Cc4c(cc(CN5CC(C)(F)C5)cc4C(F)(F)F)C3=O)c2)COC1
fold change (FC) [1]: >=7.5
fold change (FC) [2]: 1.51
fold change (FC) [3]: 1.31
fold change (FC) [4]: >=1.001
fold change (FC) [5]: >=7.5
fold change (FC) [7]: >=7.5
fold change (FC) [8]: 1.51
fold change (FC) [9]: >=0.201
fold change (FC) [10]: >=0.201
fold change (FC) [11]: >=1.001

IC50 [6]: < 100 nM
SMILES: Cn1cnnc1[C@@H]1C[C@@H]1c1cccc(N2Cc3c(cc(CN4CC[C@H](F)C4)cc3C(F)(F)F)C2=O)c1
fold change (FC) [1]: >=7.5
fold change (FC) [2]: 1.31
fold change (FC) [3]: 1.31
fold change (FC) [4]: >=1.001
fold change (FC) [5]: >=7.5
fold change (FC) [7]: 2.51
fold change (FC) [8]: 1.51
fold change (FC) [9]: >=0.201
fold change (FC) [10]: >=0.201
fold change (FC) [11]: >=1.001

IC50 [6]: < 100 nM
SMILES: Cn1cnnc1CC(C)(C)c1cccc(NC(=O)c2cccc(C(F)(F)F)n2)c1
fold change (FC) [1]: >=7.5
fold change (FC) [2]: 1.01
fold change (FC) [3]: 1.01
fold change (FC) [4]: 0.801
fold change (FC) [5]: 2.51
fold change (FC) [7]: 1.01
fold change (FC) [8]: 1.31
fold change (FC) [9]: >=0.201
fold change (FC) [10]: >=0.201
fold change (FC) [11]: >=1.001

IC50 [6]: < 100 nM
SMILES: Cc1cc(C(=O)Nc2cccc(C3(Cc4nncn4C)COC3)c2)nc(C(F)(F)F)n1
fold change (FC) [1]: >=7.5
fold change (FC) [2]: 1.01
fold change (FC) [3]: 1.01
fold change (FC) [4]: 0.801
fold change (FC) [5]: 2.51
fold change (FC) [7]: 1.01
fold change (FC) [8]: 1.01
fold change (FC) [9]: 0.101
fold change (FC) [10]: >=0.201
fold change (FC) [11]: >=1.001

IC50 [6]: < 100 nM
SMILES: C[C@H](Cc1nncn1C)c1cccc(N2Cc3c(cc(C(=O)N4CC(O)C4)cc3C(F)(F)F)C2=O)c1
fold change (FC) [1]: >=7.5
fold change (FC) [2]: 1.01
fold change (FC) [3]: 1.01
fold change (FC) [4]: 0.801
fold change (FC) [5]: 2.51
fold change (FC) [7]: 1.01
fold change (FC) [8]: 1.31
fold change (FC) [9]: 0.051
fold change (FC) [10]: 0.151
fold change (FC) [11]: >=1.001

IC50 [6]: < 100 nM
SMILES: C[C@H](Cc1nncn1C)c1cccc(NC(=O)c2cccc(C(F)(F)F)n2)c1
fold change (FC) [1]: >=7.5
fold change (FC) [2]: >=1.76
fold change (FC) [3]: >=1.76
fold change (FC) [4]: >=1.001
fold change (FC) [5]: 5
fold change (FC) [7]: 2.51
fold change (FC) [8]: >=1.76
fold change (FC) [9]: >=0.201
fold change (FC) [10]: >=0.201
fold change (FC) [11]: >=1.001
